Measurements reported in ChEMBL document CHEMBL1201862, “PubChem BioAssay data set” (2004).
Activity calls are given as the source filed them. Cut-off read from the data, not from the text of the source, for most assays here: actives have a measured EC50 and inactives only a lower limit.

Key:
H9c2 = test: cells; assay type: functional, cell-based; settings: Rattus norvegicus, H9c2, Myocardium;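 note: confirmatory concentration-response retest of ultra-high-throughput screening hits for modulation of myocardial damage; cell death induced by hydrogen peroxide oxidative stress; compound pretreatment for 60 min then peroxide exposure for 2 h; potency is for protecting the cells against peroxide damage rather than for killing them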
Streptococcus = test: GAS UMAA2166 growth inhibition – luminescence, BacTiterGlo, counter-screen for streptokinase expression inhibitor project, dose response (AID 1915); assay type: functional, organism-based;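 note: potency for reduction of bacterial viability or growth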
Streptokinase A = target: T1, Streptokinase A (Streptococcus pyogenes serotype M1, UniProt P10520); test: viability-normalized secreted streptokinase activity reduction – plasminogen activation absorbance, OD405, dose response (AID 1914); assay type: functional, Streptococcus pyogenes M1 GAS;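 note: secreted streptokinase activity via plasminogen activation per viability signal from cell pellet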
T1 sequence (P10520 whole entry): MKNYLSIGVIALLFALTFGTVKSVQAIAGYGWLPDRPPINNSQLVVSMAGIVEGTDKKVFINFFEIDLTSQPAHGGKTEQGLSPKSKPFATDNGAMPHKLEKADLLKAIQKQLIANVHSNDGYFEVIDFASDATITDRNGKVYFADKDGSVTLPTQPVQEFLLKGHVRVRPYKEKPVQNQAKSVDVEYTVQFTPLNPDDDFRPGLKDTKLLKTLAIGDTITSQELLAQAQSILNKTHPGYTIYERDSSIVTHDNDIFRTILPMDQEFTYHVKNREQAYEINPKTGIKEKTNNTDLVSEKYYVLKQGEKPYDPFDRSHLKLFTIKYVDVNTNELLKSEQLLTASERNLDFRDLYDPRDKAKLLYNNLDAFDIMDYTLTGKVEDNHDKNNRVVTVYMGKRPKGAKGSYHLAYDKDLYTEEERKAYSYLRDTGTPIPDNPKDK

[1] = tested on: Streptococcus sp. 'group A'; test: Streptococcus pyogenes SK(-)GAS viability under kanamycin – luminescence, BacTiterGlo, confirmation, counter-screen for streptokinase expression inhibitor project, dose response (AID 1900); assay type: functional, organism-based
[2] = Trypanosoma cruzi growth suppression in host cells – NIH3T3 host cells, beta-gal luminescence, confirmation (AID 2044); assay type: functional, cell-based;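 note: intracellular parasites grown in NIH/3T3 mouse fibroblasts as host cells; luminescent beta-galactosidase reporter signal from transgenic T. cruzi replicating inside host cells; inhibitors lower the luminescence signal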
[3] = NIH3T3 cell viability loss – ATP luminescence, mouse fibroblasts, counter-screen, dose response (AID 2010); assay type: functional, cell-based;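 note: cells exposed to compound for about 90 hours before reading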
[4] = target: T2, Corticotropin-releasing factor receptor 2/Corticotropin-releasing factor-binding protein (Homo sapiens, UniProt P24387+Q13324); test: activators of CRF receptor 2 with binding protein – uHTS hits, confirmation (AID 602473); assay type: functional; settings: read-out: EC50_Mean
T2 sequence (Q13324 whole entry): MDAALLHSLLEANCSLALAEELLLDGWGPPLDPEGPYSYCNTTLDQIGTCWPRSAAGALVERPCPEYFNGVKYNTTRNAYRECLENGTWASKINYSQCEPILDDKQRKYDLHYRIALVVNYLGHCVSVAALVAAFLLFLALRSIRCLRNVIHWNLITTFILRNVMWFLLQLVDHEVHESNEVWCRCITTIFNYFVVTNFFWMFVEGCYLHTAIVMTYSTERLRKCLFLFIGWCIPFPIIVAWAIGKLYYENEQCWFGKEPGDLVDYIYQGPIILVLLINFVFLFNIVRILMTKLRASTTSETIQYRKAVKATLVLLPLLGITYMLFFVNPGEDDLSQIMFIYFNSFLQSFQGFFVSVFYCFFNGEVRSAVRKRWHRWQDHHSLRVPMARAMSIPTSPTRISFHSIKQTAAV
T2 sequence (P24387 whole entry): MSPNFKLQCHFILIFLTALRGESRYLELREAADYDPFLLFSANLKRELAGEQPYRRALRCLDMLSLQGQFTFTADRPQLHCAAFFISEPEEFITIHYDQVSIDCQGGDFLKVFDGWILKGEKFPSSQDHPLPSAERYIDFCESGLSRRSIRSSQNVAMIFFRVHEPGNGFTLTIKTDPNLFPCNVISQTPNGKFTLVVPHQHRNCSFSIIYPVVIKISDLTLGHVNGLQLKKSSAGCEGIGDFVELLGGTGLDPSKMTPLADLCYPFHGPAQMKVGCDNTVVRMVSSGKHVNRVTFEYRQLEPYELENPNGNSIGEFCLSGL

| Compound | IC50 (H9c2) | EC50 (Streptococcus) | EC50 (Streptokinase A) | EC50 [1] | also measured |
| --- | --- | --- | --- | --- | --- |
| N#Cc1cnn2cc(-c3ncc(C(F)(F)F)cc3Cl)cnc12 | > 79 µM (inactive) |  |  |  |  |
| Cc1cc2ccccc2c(O)n1 | 23.5 µM (active) |  |  |  |  |
| Cc1nc(SCC(=O)NCc2ccc(F)cc2)c2c(=O)n(C)c(=O)n(C)c2n1 | > 79 µM (inactive) |  |  |  |  |
| CCn1c(=O)cc(OCC(=O)Nc2ccccc2C#N)c2ccccc21 | 18.1 µM (active) |  |  |  |  |
| Cn1c(N)c(C(=O)COC(=O)/C=C/c2ccc(OC(F)F)cc2)c(=O)n(C)c1=O |  | 13.4 µM (active) | > 150 µM (not active) | 3.34 µM (active) |  |
| O=C(O)c1nn(CCOc2ccc(Br)cc2)c(=O)c2ccccc12 | > 79 µM (inactive) |  |  |  |  |
| N#Cc1ccccc1S(=O)(=O)N1CCN(c2nc(-c3cccnc3)nc3ccccc23)CC1 | 27.7 µM (active) |  |  |  |  |
| Cc1cc(N)n(-c2nc(-c3cccnc3)nc3ccccc23)n1 | 11.6 µM (active) |  |  |  |  |
| COc1cc(C(=O)NNC(=S)NC(=O)c2ccc(F)cc2)cc(OC)c1OC |  | 15.5 µM (active) | > 150 µM (not active) | 3.25 µM (active) | EC50 [2]: 0.791 µM (active); EC50 [3]: 14.9 µM (active) |
| Cc1ccc(N2C(=O)C3CC(c4ccccc4)=C4C5C=CC(C6C(=O)N(c7ccc(C)cc7)C(=O)C56)C4C3C2=O)cc1 (configuration not stated) |  | 30.9 µM (active) | > 150 µM (not active) | 1.41 µM (active) |  |
| CC1C2=C(O)CC(C)(C)CC2=NC2=C1C(=O)CC(C)(C)C2 (configuration not stated) |  |  |  |  | EC50 [4]: > 53 µM (inactive) |
| O=c1c2ccccc2c(-c2ccccc2)nn1Cc1c(Cl)cccc1Cl |  | > 150 µM (not active) | 17 µM (active) | 7.76 µM (active) |  |
| CC1CCCC(C)N1C(=O)CSc1nc(O)c2ccccc2n1 (configuration not stated) | > 79 µM (inactive) |  |  |  |  |
| COC(=O)c1ccc(N2CCN(C)CC2)c(NC(=O)COc2ccc(C)cc2)c1 |  | > 150 µM (not active) | > 150 µM (not active) | > 150 µM (not active) |  |
| CC(C)COc1nc2ccccc2c(=O)n1OCC(=O)O | > 79 µM (inactive) |  |  |  |  |
| COc1ccc(OC)c(N(CC(=O)Nc2cccnc2)S(=O)(=O)c2ccc(OC)c(OC)c2)c1 | 12 µM (active) |  |  |  |  |
| Oc1nc(Nc2ccc(F)cc2)sc1/C=C1\C=Nc2ccccc21 |  | 18.4 µM (active) | > 150 µM (not active) | 7.02 µM (active) |  |
| COc1ccc(C(=O)NNC(=O)CCc2nc(O)c3ccccc3n2)cc1 | 26 µM (active) |  |  |  |  |
| N#CCCN(C(=O)COC(=O)CCc1nc(O)c2ccccc2n1)c1ccccc1F | 13 µM (active) |  |  |  |  |
| COc1cc(/C=N/NC(=O)c2ccccc2)ccc1OS(=O)(=O)c1ccccc1 | > 79 µM (inactive) |  |  |  |  |
| O=S(=O)(/N=C(\c1ccc(F)cc1)N1CCOCC1)c1ccccc1 |  |  |  |  | EC50 [4]: > 53 µM (inactive) |
| CCOC(=O)C1=c2/c(=C/c3ccncc3)c(N)c(C(=O)OC)n2C(=O)C(c2ccncc2)S1 (configuration not stated) | > 79 µM (inactive) |  |  |  |  |
| CCc1ccc(/C=N/n2c(S)nnc2C2CCCCC2)cc1 |  | 15.1 µM (active) | > 150 µM (not active) | 11.1 µM (active) |  |
| C/C(=N/Nc1nc(-c2ccccc2F)nc2ccccc12)c1ccccc1O |  | > 150 µM (not active) | > 150 µM (not active) | 10.2 µM (active) |  |
